Measurements from the CombiSolv-Exp solvation set (Vermeire and Green 2021).
Blank lines part the entries; values can stand above or below the compound they belong to.

Assay: solvent given as SMILES

SMILES: CCCCOCC
- solvation free energy, 298 K (in CC(C)CCl): -4.73 kcal/mol
- solvation free energy, 298 K (in CCC(C)Cl): -4.73 kcal/mol
- solvation free energy, 298 K (in CCCCCl): -4.77 kcal/mol
- solvation free energy, 298 K (in ClC(Cl)(Cl)Cl): -4.91 kcal/mol

SMILES: Cc1ccc(N(O)C(=O)COc2ccccc2)cc1
- solvation free energy, 298 K (in O): -12.8 kcal/mol

SMILES: COC(=O)c1ccc(Cl)c(Cl)c1
- solvation free energy, 298 K (in CN(C)C=O): -9.19 kcal/mol
- solvation free energy, 298 K (in O): -3.75 kcal/mol

SMILES: FC(C(F)(F)F)C(F)(F)F
- solvation free energy, 298 K (in CCCCCCCCO): -1.12 kcal/mol
- solvation free energy, 298 K (in CN1CCCC1=O): -0.6 kcal/mol
- solvation free energy, 298 K (in O): 2.01 kcal/mol

SMILES: CCCCCCCCCCCCC
- solvation free energy, 298 K (in O): 4.12 kcal/mol

SMILES: CCCCN(CC)N=O
- solvation free energy, 298 K (in CC(C)CC(C)(C)C): -6.49 kcal/mol
- solvation free energy, 298 K (in O): -5.25 kcal/mol

SMILES: CCC#N
- solvation free energy, 298 K (in C=CCCCCCCCCCCCCCC): -2.85 kcal/mol
- solvation free energy, 298 K (in CC(=O)N(C)C): -4.99 kcal/mol
- solvation free energy, 298 K (in CC(C)CC(C)(C)C): -2.83 kcal/mol
- solvation free energy, 298 K (in CCCCCC): -3.04 kcal/mol
- solvation free energy, 298 K (in CCCCCCC): -2.86 kcal/mol
- solvation free energy, 298 K (in CCCCCCCC): -2.84 kcal/mol
- solvation free energy, 298 K (in CCCCCCCCCCCCCCCC): -2.64 kcal/mol
- solvation free energy, 298 K (in CCCCCCCCO): -3.65 kcal/mol
- solvation free energy, 298 K (in CCCCO): -4.01 kcal/mol
- solvation free energy, 298 K (in CCOC(C)=O): -4.68 kcal/mol
- solvation free energy, 298 K (in CN(C)C=O): -5.01 kcal/mol
- solvation free energy, 298 K (in CO): -4.92 kcal/mol
- solvation free energy, 298 K (in ClC(Cl)(Cl)Cl): -3.78 kcal/mol
- solvation free energy, 298 K (in ClCCCl): -4.98 kcal/mol
- solvation free energy, 298 K (in Clc1ccccc1): -4.45 kcal/mol
- solvation free energy, 298 K (in N#Cc1ccccc1): -4.82 kcal/mol
- solvation free energy, 298 K (in O): -3.84 kcal/mol
- solvation free energy, 298 K (in [2H]O[2H]): -3.79 kcal/mol

SMILES: CC(C)=CCCC(C)C1C=CC(C)=CC1 (stereo not drawn)
- solvation free energy, 298 K (in O): -0.11 kcal/mol

SMILES: COC(CC#N)(OC)OC
- solvation free energy, 298 K (in O): -6.4 kcal/mol

SMILES: O=C(O)c1ccccc1Cl
- solvation free energy, 298 K (in CC(C)=O): -10.4 kcal/mol
- solvation free energy, 298 K (in CN(C)C=O): -11.1 kcal/mol
- solvation free energy, 298 K (in O): -7.53 kcal/mol

SMILES: OC1CCCCCCCCCCC1
- solvation free energy, 298 K (in O): -5.35 kcal/mol

SMILES: CCCC1CCCCC1
- solvation free energy, 298 K (in CN1CCCC1=O): -4.57 kcal/mol
- solvation free energy, 298 K (in NC=O): -1.91 kcal/mol
- solvation free energy, 298 K (in O): 1.8 kcal/mol

SMILES: CC(=O)C(C)O (stereo not drawn)
- solvation free energy, 298 K (in O): -4.29 kcal/mol

SMILES: Oc1ccccc1Br
- solvation free energy, 298 K (in CC(C)CC(C)(C)C): -6.25 kcal/mol
- solvation free energy, 298 K (in CCCCCC): -6.52 kcal/mol
- solvation free energy, 298 K (in CCCCCCC): -6.49 kcal/mol
- solvation free energy, 298 K (in CCCCCCCC): -6.47 kcal/mol
- solvation free energy, 298 K (in CCCCCCCCCC): -6.44 kcal/mol
- solvation free energy, 298 K (in Cc1ccc(C)cc1): -7.18 kcal/mol
- solvation free energy, 298 K (in Cc1cccc(C)c1): -7.27 kcal/mol
- solvation free energy, 298 K (in Cc1ccccc1C): -7.22 kcal/mol
- solvation free energy, 298 K (in O): -5.06 kcal/mol

SMILES: c1ccc2c(c1)OCCOCCOCCOc1ccccc1OCCOCCOCCO2
- solvation free energy, 298 K (in Cc1cccc(C)c1): -27.3 kcal/mol
- solvation free energy, 298 K (in O): -23.6 kcal/mol

SMILES: CCC(=O)c1c(C)[nH]n(-c2ccccc2)c1=O
- solvation free energy, 298 K (in O): -9.74 kcal/mol

SMILES: CCOC(=O)CC
- solvation free energy, 298 K (in CCCCCCCC): -4.11 kcal/mol
- solvation free energy, 298 K (in CCCCCCCCCCCCCCCC): -3.91 kcal/mol
- solvation free energy, 298 K (in CCCCCCCCO): -4.3 kcal/mol
- solvation free energy, 298 K (in CCOCCO): -4.58 kcal/mol
- solvation free energy, 298 K (in CN1CCCC1=O): -4.49 kcal/mol
- solvation free energy, 298 K (in O): -2.7 kcal/mol
- solvation free energy, 298 K (in O=CN1CCOCC1): -4.3 kcal/mol
- solvation free energy, 298 K (in [2H]O[2H]): -2.8 kcal/mol

The remaining lines, values ahead:

- solvation free energy, 298 K (in CN1CCCC1=O): -12.8 kcal/mol
- solvation free energy, 298 K (in O): -8.94 kcal/mol
SMILES: O=Cc1ccc(C(=O)O)cc1

- solvation free energy, 298 K (in O): -2.24 kcal/mol
SMILES: CCCCCC(=O)OCC

- solvation free energy, 298 K (in O): -11.5 kcal/mol
SMILES: Cc1ccc(N(O)C(=O)c2ccccc2C)cc1

- solvation free energy, 298 K (in CC(C)O): -16.2 kcal/mol
- solvation free energy, 298 K (in CCCCCCCCCCO): -16.4 kcal/mol
- solvation free energy, 298 K (in CCCCCCCCO): -16.4 kcal/mol
- solvation free energy, 298 K (in CCCCCCO): -16.5 kcal/mol
SMILES: CCCCCCCCCCCCCCCCCCCCO

- solvation free energy, 298 K (in C=CCCCCCCCCCCCCCC): -8.43 kcal/mol
- solvation free energy, 298 K (in O): -13.3 kcal/mol
SMILES: O=C(O)c1ccc(CO)cc1

- solvation free energy, 298 K (in O): -4.45 kcal/mol
SMILES: O=[N+]([O-])c1cccc(Cl)c1

- solvation free energy, 298 K (in O): -2.51 kcal/mol
SMILES: CCCCC(=O)OCCC(C)CCC=C(C)C (stereo not drawn)

- solvation free energy, 298 K (in CCCCCC): -7.93 kcal/mol
- solvation free energy, 298 K (in CCCCCCC): -7.93 kcal/mol
- solvation free energy, 298 K (in CCCCCCCC): -7.93 kcal/mol
- solvation free energy, 298 K (in CCCCCCCCCC): -7.93 kcal/mol
- solvation free energy, 298 K (in CCCCOCCCC): -11.8 kcal/mol
- solvation free energy, 298 K (in O): -10.7 kcal/mol
SMILES: O=[N+]([O-])c1ccc(O)cc1

- solvation free energy, 298 K (in CC(C)CC(C)(C)C): -7.14 kcal/mol
- solvation free energy, 298 K (in O): -5.72 kcal/mol
SMILES: c1ccc2ncccc2c1

- solvation free energy, 298 K (in O): -6.55 kcal/mol
SMILES: CC(C)CCCCOC(=O)c1ccccc1C(=O)OCCCCC(C)C

- solvation free energy, 298 K (in O): -13.6 kcal/mol
SMILES: NC(N)=O
